# According to patent US6403580B1, “Quinazolines, pharmaceutical compositions containing these compounds, their use and processes for preparing them” (Boehringer Ingelheim Pharma KG, priority 2000, dated 2002):
# pIC50: −log10 of the molar value.
# Tests used:
# human EGF-R = target: T1, human EGF-R (Homo sapiens, UniProt P00533); assay: Inhibition of EGF-dependent proliferation of F/L-HERc cells; format: cell-based; conditions: F/L-HERc cells (murine IL-3-dependent line expressing human EGF-R), stimulated with EGF 20 ng/ml, 48 hours, Cell Titer 96 assay
# T1 construct: expressed in transfected cells; host or cells: F/L-HERc cells (murine IL-3-dependent FDC-P1 line, transduced with retroviral vector LXSN carrying human EGF-R cDNA; packaging line GP+E86)
# Excerpt: A cell line of murine origin dependent on interleukin-3-(IL-3) which was genetically modified to express functional human EGF-R was used here. The proliferation of these cells known as F/L-HERc can therefore be stimulated either by murine IL-3 or by EGF (cf. von Rüden, T. et al. in EMBO J . 7, 2749-2756 (1988) and Pierce, J. H. et al. in Science 239, 628-631 (1988)).
# The starting material used for the F/L-HERc cells was the cell line FDC-P1, the production of which has been described by Dexter, T. M. et al. in J. Exp. Med. 152, 1036-1047 (1980). Alternatively, however, other growth-factor-dependent cells may also be used (cf. for example Pierce, J. H. et al. in Science 239, 628-631 (1988), Shibuya, H. et al. in Cell 70, 57-67 (1992) and Alexander, W. S. et al. in EMBO J. 10, 3683-3691 (1991)). […]
# In order to determine the inhibitory activity of the compounds according to the invention the relative cell number was measured in O.D. units using the Cell Titer 96™ Aqueous Non-Radioactive Cell Proliferation Assay (Promega). […]
# T1 sequence (P00533 25-1210): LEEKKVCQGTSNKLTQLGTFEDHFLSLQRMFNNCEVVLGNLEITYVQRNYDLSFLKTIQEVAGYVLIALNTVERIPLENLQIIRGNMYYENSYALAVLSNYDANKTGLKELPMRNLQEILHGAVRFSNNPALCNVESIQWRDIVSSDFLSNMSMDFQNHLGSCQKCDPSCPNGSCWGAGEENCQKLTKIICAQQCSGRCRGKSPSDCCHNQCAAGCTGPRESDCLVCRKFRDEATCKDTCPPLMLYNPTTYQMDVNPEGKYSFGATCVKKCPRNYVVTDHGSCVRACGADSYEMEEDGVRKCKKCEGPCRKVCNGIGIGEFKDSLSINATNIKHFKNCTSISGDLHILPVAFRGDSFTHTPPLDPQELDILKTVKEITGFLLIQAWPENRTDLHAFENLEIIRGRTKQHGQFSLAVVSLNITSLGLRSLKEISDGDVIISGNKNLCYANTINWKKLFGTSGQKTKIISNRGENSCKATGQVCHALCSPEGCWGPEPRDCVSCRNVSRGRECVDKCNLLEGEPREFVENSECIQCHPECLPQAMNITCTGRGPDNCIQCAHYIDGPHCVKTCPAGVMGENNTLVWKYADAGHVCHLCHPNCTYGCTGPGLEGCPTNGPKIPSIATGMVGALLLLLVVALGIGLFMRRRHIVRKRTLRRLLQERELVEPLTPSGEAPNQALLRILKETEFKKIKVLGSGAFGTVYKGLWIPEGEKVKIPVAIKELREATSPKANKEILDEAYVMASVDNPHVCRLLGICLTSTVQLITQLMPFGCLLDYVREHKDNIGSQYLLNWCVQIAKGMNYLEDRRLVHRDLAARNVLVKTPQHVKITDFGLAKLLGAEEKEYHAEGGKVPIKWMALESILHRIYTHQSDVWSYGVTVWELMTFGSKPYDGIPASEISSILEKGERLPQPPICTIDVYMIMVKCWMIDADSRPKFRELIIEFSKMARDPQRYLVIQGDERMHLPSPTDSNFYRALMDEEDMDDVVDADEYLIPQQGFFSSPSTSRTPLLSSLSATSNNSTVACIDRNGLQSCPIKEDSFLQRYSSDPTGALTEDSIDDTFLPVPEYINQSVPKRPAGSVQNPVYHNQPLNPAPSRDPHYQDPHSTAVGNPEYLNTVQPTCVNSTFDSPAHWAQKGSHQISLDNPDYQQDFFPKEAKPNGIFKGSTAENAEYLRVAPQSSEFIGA
pIC50 (human EGF-R),melting point [°C],SMILES
9.40,–,"C=CC(=O)Nc1cc2c(N[C@H](C)c3ccccc3)ncnc2cc1OCCN1CC(=O)OC(C)(C)C1 [1(2), 4-[(R)-(1-phenyl-ethyl)amino]-7-[2-(2,2-dimethyl-6-oxo-morpholin-4-yl)-ethoxy]-6-[(vinylcarbonyl)amino]-quinazoline]"
–,182.5 to 184,"C=CC(=O)Nc1cc2c(Nc3ccc(F)c(Cl)c3)ncnc2cc1OCCN1CC(=O)OC(C)(C)C1 [Example 1(1), 4-[(3-chloro-4-fluoro-phenyl)amino]-7-[2-(2,2-dimethyl-6-oxo-morpholin-4-yl)-ethoxy]-6-[(vinylcarbonyl)amino]-quinazoline]"
–,195 to 199,"C=CC(=O)Nc1cc2c(Nc3ccc(F)c(Cl)c3)ncnc2cc1OCCN(C)C1COC(=O)C1 (stereo not shown) [Example 1(11), 4-[(3-chloro-4-fluorophenyl)amino]-7-{2-[N-(2-oxo-tetrahydrofuran4-yl)-N-methyl-amino]-ethoxy}-6-[(vinylcarbonyl)amino]-quinazoline]"
–,110 to 112,"C=CC(=O)Nc1cc2c(Nc3ccc(F)c(Cl)c3)ncnc2cc1OCCCCN1CC(=O)OC(C)(C)C1 [Example 1(15), 4-[(3-chloro-4-fluorophenyl)amino]-7-[4-(2,2-dimethyl-6-oxo-morpholin-4-yl)-butyloxy]-6-[(vinylcarbonyl)amino]-quinazoline]"
